Measurements reported in patent publication US9169254B2, “Spiroimidazolone derivative” (Chugai Seiyaku Kabushiki Kaisha, priority 2009, dated 2015).
Counter-ions that a name gives are not always drawn.

Biological target: T1, human PTH1 receptor (Homo sapiens, UniProt Q03431)
T1 sequence (Q03431 27-593): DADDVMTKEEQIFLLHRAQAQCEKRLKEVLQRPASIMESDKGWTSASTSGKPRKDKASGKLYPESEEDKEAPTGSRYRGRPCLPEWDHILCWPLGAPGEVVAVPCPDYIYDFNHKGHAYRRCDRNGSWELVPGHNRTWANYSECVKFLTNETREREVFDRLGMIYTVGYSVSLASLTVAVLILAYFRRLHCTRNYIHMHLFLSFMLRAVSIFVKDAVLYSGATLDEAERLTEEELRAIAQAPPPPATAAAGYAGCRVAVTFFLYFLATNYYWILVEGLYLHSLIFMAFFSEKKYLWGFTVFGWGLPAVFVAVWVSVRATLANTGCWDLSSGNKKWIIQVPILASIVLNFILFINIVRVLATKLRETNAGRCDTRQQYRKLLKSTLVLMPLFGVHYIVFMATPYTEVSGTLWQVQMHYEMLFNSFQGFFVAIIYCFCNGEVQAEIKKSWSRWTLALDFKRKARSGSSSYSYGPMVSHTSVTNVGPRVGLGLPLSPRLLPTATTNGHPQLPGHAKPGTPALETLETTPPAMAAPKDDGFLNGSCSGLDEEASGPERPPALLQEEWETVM
Assay: In vitro cAMP signal activity in HKRK-B7 cells (LLC-PK1 cells overexpressing the human PTH1 receptor)
Assay type: cell-based
Settings: HKRK-B7 cells; compound at 1×10^−3 M; […]; 0.1 µM

Structure (SMILES)	cAMP production activity (%)
O=C(Cn1ccc2c(/C=C/S(=O)(=O)N3CCC4(CC3)N=C(C3CCCCC3)NC4=O)cccc21)Nc1ccncc1 [Compound 736, 2-{4-[(E)-2-(2-Cyclohexyl-4-oxo-1,3,8-triaza-spiro[4.5]dec-1-ene-8-sulfonyl)-vinyl]-indol-1-yl}-N-pyridin-4-yl-acetamide]	16

Same assay, conditions: HKRK-B7 cells; compound at 1×10^−3 M; cAMP produced as percentage of that produced by hPTH(1-34) at 100 nM

Structure (SMILES)	cAMP production activity (%)
Cc1cc(N(C)C(N)=O)cc(C)c1/C=C/S(=O)(=O)N1CCC2(CC1)N=C(C1CCC(CCC(F)(F)F)CC1)NC2=O (stereo not drawn) [Compound 723, 1-[3,5-Dimethyl-4-((E)-2-{4-oxo-2-[4-(3,3,3-trifluoro-propyl)-cyclohexyl]-1,3,8-triaza-spiro[4.5]dec-1-ene-8-sulfonyl}-vinyl)-phenyl]-1-methyl-urea]	95
Cc1cc(N(CCOCCO)C(N)=O)cc(C)c1/C=C/S(=O)(=O)N1CCC2(CC1)N=C(C1CCC(CCC(F)(F)F)CC1)NC2=O (stereo not drawn) [Compound 724, 1-[3,5-Dimethyl-4-((E)-2-{4-oxo-2-[4-(3,3,3-trifluoro-propyl)-cyclohexyl]-1,3,8-triaza-spiro[4.5]dec-1-ene-8-sulfonyl}-vinyl)-phenyl]-1-[2-(2-hydroxy-ethoxy)-ethyl]-urea]	74
COCCN(C(N)=O)c1cc(C)c(/C=C/S(=O)(=O)N2CCC3(CC2)N=C(C2CCC(CCC(F)(F)F)CC2)NC3=O)c(C)c1 (stereo not drawn) [Compound 725, 1-[3,5-dimethyl-4-((E)-2-{4-oxo-2-[4-(3,3,3-trifluoro-propyl)-cyclohexyl]-1,3,8-triaza-spiro[4.5]dec-1-ene-8-sulfonyl}-vinyl)-phenyl]-1-(2-methoxy-ethyl)-urea]	58
Cc1cc(N(C(N)=O)C(C)C)cc(C)c1/C=C/S(=O)(=O)N1CCC2(CC1)N=C(C1CCC(C)CC1)NC2=O (stereo not drawn) [Compound 726, 1-(3,5-Dimethyl-4-{(E)-2-[2-(4-methyl-cyclohexyl)-4-oxo-1,3,8-triaza-spiro[4.5]dec-1-ene-8-sulfonyl]-vinyl}-phenyl)-1-isopropyl-urea]	75
CCc1cc(N(C)C(N)=O)ccc1/C=C/S(=O)(=O)N1CCC2(CC1)N=C(C1CCC(C)CC1)NC2=O (stereo not drawn) [Compound 727, 1-(3-ethyl-4-{(E)-2-[2-(4-methyl-cyclohexyl)-4-oxo-1,3,8-triaza-spiro[4.5]dec-1-ene-8-sulfonyl]-vinyl}-phenyl)-1-methyl-urea]	52
COc1cc(N(C)C(N)=O)cc(C)c1/C=C/S(=O)(=O)N1CCC2(CC1)N=C(C1CCC(C)CC1)NC2=O (stereo not drawn) [Compound 728, 1-(3-Methoxy-5-methyl-4-{(E)-2-[2-(4-methyl-cyclohexyl)-4-oxo-1,3,8-triaza-spiro[4.5]dec-1-ene-8-sulfonyl]-vinyl}-phenyl)-1-methyl-urea]	87
Cc1cc(N(CC#N)C(N)=O)ccc1/C=C/S(=O)(=O)N1CCC2(CC1)N=C(c1cccc(OC(F)(F)F)c1)NC2=O [Compound 729, 1-Cyanomethyl-1-(3-methyl-4-{(E)-2-[4-oxo-2-(3-trifluoromethoxy-phenyl)-1,3,8-triaza-spiro[4.5]dec-1-ene-8-sulfonyl]-vinyl}-phenyl)-urea]	45
Cc1cc(N(C(N)=O)C2CCCC2)ccc1/C=C/S(=O)(=O)N1CCC2(CC1)N=C(c1cccc(OC(F)(F)F)c1)NC2=O [Compound 730, 1-cyclopentyl-1-(3-methyl-4-{(E)-2-[4-oxo-2-(3-trifluoromethoxy-phenyl)-1,3,8-triaza-spiro[4.5]dec-1-ene-8-sulfonyl]-vinyl}-phenyl)-urea]	74
Cc1cc(N(CC(F)(F)F)C(N)=O)ccc1/C=C/S(=O)(=O)N1CCC2(CC1)N=C(c1cccc(OC(F)(F)F)c1)NC2=O [Compound 731, 1-(3-Methyl-4-{(E)-2-[4-oxo-2-(3-trifluoromethoxy-phenyl)-1,3,8-triaza-spiro[4.5]dec-1-ene-8-sulfonyl]-vinyl}-phenyl)-1-(2,2,2-trifluoro-ethyl)-urea]	54
CCC1CCC(C2=NC3(CCN(S(=O)(=O)CCc4c(C)cc(N(C)C(N)=O)cc4C)CC3)C(=O)N2)CC1 (stereo not drawn) [Compound 732, 1-(4-{2-[2-(4-Ethyl-cyclohexyl)-4-oxo-1,3,8-triaza-spiro[4.5]dec-1-ene-8-sulfonyl]-ethyl}-3,5-dimethyl-phenyl)-1-methyl-urea]	45
Cc1cc(N(C[C@H](O)CO)C(N)=O)cc(C)c1/C=C/S(=O)(=O)N1CCC2(CC1)N=C(C1CCC(C)CC1)NC2=O (stereo partly drawn) [Compound 733, 1-((S)-2,3-Dihydroxy-propyl)-1-(3,5-dimethyl-4-{(E)-2-[2-(4-methyl-cyclohexyl)-4-oxo-1,3,8-triaza-spiro[4.5]dec-1-ene-8-sulfonyl]-vinyl}-phenyl)-urea]	104
CC(=O)N(c1ccc(/C=C/S(=O)(=O)N2CCC3(CC2)N=C(C2CCCCC2)NC3=O)c(C)c1)C1CCCC1 [Compound 734, N-{4-[(E)-2-(2-Cyclohexyl-4-oxo-1,3,8-triaza-spiro[4.5]dec-1-ene-8-sulfonyl)-vinyl]-3-methyl-phenyl}-N-cyclopentyl-acetamide trifluoroacetate]	47
Cc1cc(NC(=O)[C@@H](N)C(C)C)cc(C)c1/C=C/S(=O)(=O)N1CCC2(CC1)N=C(C1CCCCC1)NC2=O [Compound 735, (S)-2-Amino-N-{4-[(E)-2-(2-cyclohexyl-4-oxo-1,3,8-triaza-spiro[4.5]dec-1-ene-8-sulfonyl)-vinyl]-3,5-dimethyl-phenyl}-3-methyl-butylamide]	32
Cc1cc(CC(N)=O)ccc1/C=C/S(=O)(=O)N1CCC2(CC1)N=C(C1CCC(C)CC1)NC2=O (stereo not drawn) [Compound 737, 2-(3-Methyl-4-{(E)-2-[2-(4-methyl-cyclohexyl)-4-oxo-1,3,8-triaza-spiro[4.5]dec-1-ene-8-sulfonyl]-vinyl}-phenyl)-acetamide]	96
Cc1cc(NC2=NCCS2)cc(C)c1/C=C/S(=O)(=O)N1CCC2(CC1)N=C(C1CCCCC1)NC2=O [Compound 738, 2-Cyclohexyl-8-{(E)-2-[4-(4,5-dihydro-thiazol-2-ylamino)-2,6-dimethyl-phenyl]-ethenesulfonyl}-1,3,8-triaza-spiro[4.5]dec-1-en-4-one]	79
Cc1cc(OCC2(C)COC2)ccc1/C=C/S(=O)(=O)N1CCC2(CC1)N=C(C1CCCCC1)NC2=O [Compound 739, 2-Cyclohexyl-8-{(E)-2-[2-methyl-4-(3-methyl-oxetan-3-ylmethoxy)-phenyl]-ethenesulfonyl}-1,3,8-triaza-spiro[4.5]dec-1-en-4-one]	47
Cc1cc(N(C)C(N)=O)cc(C)c1C1CC1S(=O)(=O)N1CCC2(CC1)N=C(C1CCC(C)CC1)NC2=O (stereo not drawn) [Compound 740, 1-(3,5-Dimethyl-4-{2-[2-(4-methyl-cyclohexyl)-4-oxo-1,3,8-triaza-spiro[4.5]dec-1-ene-8-sulfonyl]-cyclopropyl}-phenyl)-1-methyl-urea]	123
CC(=CS(=O)(=O)N1CCC2(CC1)N=C(C1CCC(C)CC1)NC2=O)c1c(C)cc(N(C)C(N)=O)cc1C (stereo not drawn) [Compound 741, 1-(3,5-dimethyl-4-{1-methyl-2-[2-(4-methyl-cyclohexyl)-4-oxo-1,3,8-triaza-spiro[4.5]dec-1-ene-8-sulfonyl]-vinyl}-phenyl)-1-methyl-urea]	91
Cc1cc(NS(N)(=O)=O)ccc1/C=C/S(=O)(=O)N1CCC2(CC1)N=C(c1cccc(OC(F)(F)F)c1)NC2=O [Compound 742, N-(3-Methyl-4-{(E)-2-[4-oxo-2-(3-trifluoromethoxy-phenyl)-1,3,8-triaza-spiro[4.5]dec-1-ene-8-sulfonyl]-vinyl}-phenyl)-sulfamide]	50
Cc1cc(NS(=O)(=O)NCCCO)ccc1/C=C/S(=O)(=O)N1CCC2(CC1)N=C(c1cccc(OC(F)(F)F)c1)NC2=O [Compound 743, N-(3-Hydroxy-propyl)-N′-(3-methyl-4-{(E)-2-[4-oxo-2-(3-trifluoromethoxy-phenyl)-1,3,8-triaza-spiro[4.5]dec-1-ene-8-sulfonyl]-vinyl}-phenyl)-sulfamide]	54
CC(=O)N(C)c1ccc(/C=C/CS(=O)(=O)N2CCC3(CC2)N=C(C2CCC(C)CC2)NC3=O)c(C)c1 (stereo not drawn) [Compound 744, N-Methyl-N-(3-methyl-4-{(E)-3-[2-(4-methyl-cyclohexyl)-4-oxo-1,3,8-triaza-spiro[4.5]dec-1-ene-8-sulfonyl]-propenyl}-phenyl)-acetamide]	19
Cc1cc2c(CCS(=O)(=O)N3CCC4(CC3)N=C(C3CCCCC3)NC4=O)cccc2[nH]1 [Compound 745, 2-Cyclohexyl-8-[2-(2-methyl-1H-indol-4-yl)-ethanesulfonyl]-1,3,8-triaza-spiro[4.5]dec-1-en-4-one]	67
O=C1NC(c2cccc(OC(F)(F)F)c2)=NC12CCN(S(=O)(=O)CCc1cccc3c1ccn3C[C@H](O)CO)CC2 [Compound 746, 8-{2-[1-((S)-2,3-dihydroxy-propyl)-1H-indol-4-yl]-ethanesulfonyl}-2-(3-trifluoromethoxy-phenyl)-1,3,8-triaza-spiro[4.5]dec-1-en-4-one]	120
